Earlier results, collected in patent US20050009782A1, “Antiviral charged polymers that exhibit resistance to lysosomal degradation during kidney filtration and renal passage, compositions and methods of use thereof” (priority 2003, published 2005).

How the values were obtained:
HIV [1] = details: for In vitro activity: listed virus = activity demonstrated; for inhibition of HIV replication: in vitro; for inhibition of HIV replication / inhibition of HIV in vitro: reported in literature
HSV-1 = details: listed virus = activity demonstrated
HSV-2 = details: listed virus = activity demonstrated
RLV = details: listed virus = activity demonstrated
HIV-1 = details: listed virus = activity demonstrated
CMV = details: for inhibition of cytomegaloviruses in vitro: reported in literature; for In vitro activity: listed virus = activity demonstrated
HSV = details: for inhibition of herpes simplex viruses in vitro: reported in literature; for In vitro activity: listed virus = activity demonstrated
Chlamydia = details: listed organism = activity demonstrated
paramyxoviruses = details: reported in literature
semlikiviruses = details: reported in literature
HIV [2] = system: HIV
measles = details: listed virus = activity demonstrated
mumps = details: listed virus = activity demonstrated
HHV-7 = details: listed virus = activity demonstrated
Denge virus = details: listed virus = activity demonstrated
MLV = details: listed virus = activity demonstrated

## Chondroitin polysulfate
HIV [1]
  In vitro activity: HIV

## iota-carrageenan
HIV [1]
  inhibition of HIV replication: inhibit HIV replication

## N[C@H]1C(O)O[C@H](COS(=O)(=O)O)[C@@H](O)[C@@H]1O (stereo partly drawn) [Glucosamine-6-sulfate (monosaccharide), Glucosamine-6-sulfate]
HIV [1]
  In vitro activity: HIV

## Xylomannan sulfate
HIV [1]
  In vitro activity: HIV
HSV-1
  In vitro activity: HSV-1
HSV-2
  In vitro activity: HSV-2

## N-carboxymethylchitosan-N,O-sulfate
HIV [1]
  In vitro activity: HIV
RLV
  In vitro activity: RLV

## Prunellin
HIV [1]
  In vitro activity: HIV

## Glycyrrhizin sulfate
HIV [1]
  In vitro activity: HIV

## O=S(=O)(O)OC1C(OS(=O)(=O)O)C(OS(=O)(=O)O)C(OS(=O)(=O)O)C(OS(=O)(=O)O)C1OS(=O)(=O)O (stereo not drawn) [Inositol hexasulfate]
HIV [1]
  In vitro activity: HIV

## Achranthese bidentata polysaccharide sulfate
HSV-1
  In vitro activity: HSV-1

## Sulfated xylogalactans
HIV-1
  In vitro activity: HIV-1

## Pentosan polysulfate
HIV [1]
  inhibition of HIV replication: inhibit HIV replication
  In vitro activity: HIV
  inhibition of HIV in vitro: potent inhibitors
CMV
  inhibition of cytomegaloviruses in vitro: potent inhibitors
HSV
  inhibition of herpes simplex viruses in vitro: potent inhibitors
Chlamydia
  In vitro activity: Chlamydia
paramyxoviruses
  inhibition of paramyxoviruses in vitro: potent inhibitors
Influenza viruses
  inhibition of influenza viruses in vitro: potent inhibitors
semlikiviruses
  inhibition of semlikiviruses in vitro: potent inhibitors

## Sulfated octadecyl maltohexaoside
HIV [1]
  In vitro activity: HIV

## 2-acetamido-2-deoxy-3-O-sulfo(14)-beta-D-glycopyranan
HIV [1]
  In vitro activity: HIV

## Fucoidin
HIV [1]
  inhibition of HIV replication: inhibit HIV replication
  In vitro activity: HIV
Chlamydia
  In vitro activity: Chlamydia

## dextrin sulfate
HIV [1]
  inhibition of HIV replication: inhibit HIV replication

## Carboxymethylchitin
HSV
  In vitro activity: HSV

## Polyinosinic-polycytidylic acid
HIV [1]
  In vitro activity: HIV

## Galactan sulfate
HIV [1]
  In vitro activity: HIV
HSV-1
  In vitro activity: HSV-1

## dextran sulfate
HIV [1]
  inhibition of HIV replication: inhibit HIV replication
  inhibition of HIV in vitro: potent inhibitors
CMV
  inhibition of cytomegaloviruses in vitro: potent inhibitors
HSV
  inhibition of herpes simplex viruses in vitro: potent inhibitors
paramyxoviruses
  inhibition of paramyxoviruses in vitro: potent inhibitors
Influenza viruses
  inhibition of influenza viruses in vitro: potent inhibitors
semlikiviruses
  inhibition of semlikiviruses in vitro: potent inhibitors
Continuous infusion to maximally tolerated dose, subjects with symptomatic HIV infection, up to 14 days
  toxicity of continuous intravenous infusion: toxic
Mammals and HIV patients
  toxicity in mammals and HIV patients: significant toxicity
HIV [2]; commercial dextran sulfate
  activity against HIV in vivo: poor activity
HIV [2]; continuous infusion, subjects with symptomatic HIV infection, up to 14 days
  beneficial effect in vivo: lack of any demonstration of beneficial effect in vivo

## 3′ sulfogalactosylceramide [Sulfatide (3′ sulfogalactosylceramide)]
HIV [1]
  In vitro activity: HIV

## Ribofuranan sulfate
HIV [1]
  In vitro activity: HIV

## (14)-2-deoxy-2-sulfamido-3-O-sulfo-(14)-beta-D-glycopyranan
HIV [1]
  In vitro activity: HIV

## Sulfated octadecyl ribofurnans
HIV [1]
  In vitro activity: HIV

## lambda-carrageenan
HIV [1]
  inhibition of HIV replication: inhibit HIV replication

## Calcium spirulan
HIV [1]
  In vitro activity: HIV
HSV-1
  In vitro activity: HSV-1
CMV
  In vitro activity: CMV
measles
  In vitro activity: measles
mumps
  In vitro activity: mumps

## Sulfated N-deacetylatedchitin
HSV
  In vitro activity: HSV

## Sulfoevernan
HIV [1]
  inhibition of HIV replication: inhibit HIV replication
  In vitro activity: HIV

## Polyacetal polysulfate
HIV [1]
  In vitro activity: HIV

## Sulfate dodecyl laminarapentaoside
HIV [1]
  In vitro activity: HIV

## Curdlan sulfate
HIV [1]
  In vitro activity: HIV
CMV
  In vitro activity: CMV

## Heparin
HIV [1]
  inhibition of HIV replication: inhibit HIV replication
  In vitro activity: HIV
  inhibition of HIV in vitro: potent inhibitors
CMV
  inhibition of cytomegaloviruses in vitro: potent inhibitors
HSV
  inhibition of herpes simplex viruses in vitro: potent inhibitors
HHV-7
  In vitro activity: HHV-7
ASFV
  In vitro activity: ASFV, Denge
Denge virus
  In vitro activity: ASFV, Denge
MLV
  In vitro activity: virus, MLV
paramyxoviruses
  inhibition of paramyxoviruses in vitro: potent inhibitors
Influenza viruses
  inhibition of influenza viruses in vitro: potent inhibitors
semlikiviruses
  inhibition of semlikiviruses in vitro: potent inhibitors

## kappa-carrageenan
HIV [1]
  inhibition of HIV replication: inhibit HIV replication

## Rhamnan sulfate
HIV [1]
  In vitro activity: HIV
HSV-1
  In vitro activity: HSV-1
CMV
  In vitro activity: CMV

## Mannan sulfate
HIV [1]
  inhibition of HIV replication: inhibit HIV replication
  In vitro activity: HIV

## Lentinan sulfate
HIV [1]
  inhibition of HIV replication: inhibit HIV replication
  In vitro activity: HIV

## CCCCCCCCCCCCOS(=O)(=O)[O-].[Na+] [Sodium lauryl sulfate]
HIV [1]
  In vitro activity: HIV
HSV
  In vitro activity: HSV

## sulfated cyclodextrins
HIV [1]
  inhibition of HIV replication: inhibit HIV replication

B1: Cyanovirin-N (from cyanobacterium): Cyanovirin-N from cyanobacterium (protein, UniProt P81180 1-101, looked up)
Cyanovirin-N: LGKFSQTCYNSAIQGSVLTSTCERTNGGYNTSSIDLNSVIENVDGSLKWQPSNFIETCRNTQLAGSSELAAECKTRAQQFVSTKINLDDHIANIDGTLKYE
HIV [1]
  In vitro activity: HIV
